In PMC10569036:

Assays:
[1] = shake flask on a mixture of 185; loss from the water phase only; LC-QTOF peak areas; settings: room
[2] = shake flask on a mixture of 185; loss from the water phase only; LC-Orbitrap peak areas; settings: room

Row | Compound | log partition 1-octanol / HPLC water, unbuffered, traces of methanol / DMSO [1] [log10] | log partition butyl acetate / HPLC water, unbuffered, traces of methanol / DMSO [1] [log10] | log partition chloroform / HPLC water, unbuffered, traces of methanol / DMSO [1] [log10] | log partition cyclohexane / HPLC water, unbuffered, traces of methanol / DMSO [1] [log10] | log partition dichloromethane / HPLC water, unbuffered, traces of methanol / DMSO [1] [log10] | log partition n-hexane / HPLC water, unbuffered, traces of methanol / DMSO [1] [log10] | log partition n-octane / HPLC water, unbuffered, traces of methanol / DMSO [1] [log10] | log partition n-undecane / HPLC water, unbuffered, traces of methanol / DMSO [1] [log10] | log partition oleylalcohol / HPLC water, unbuffered, traces of methanol / DMSO [1] [log10] | log partition toluene / HPLC water, unbuffered, traces of methanol / DMSO [1] [log10] | log partition 1-octanol / HPLC water, unbuffered, traces of methanol / DMSO [2] [log10] | log partition butyl acetate / HPLC water, unbuffered, traces of methanol / DMSO [2] [log10] | log partition chloroform / HPLC water, unbuffered, traces of methanol / DMSO [2] [log10] | log partition cyclohexane / HPLC water, unbuffered, traces of methanol / DMSO [2] [log10] | log partition dichloromethane / HPLC water, unbuffered, traces of methanol / DMSO [2] [log10] | log partition n-hexane / HPLC water, unbuffered, traces of methanol / DMSO [2] [log10] | log partition n-octane / HPLC water, unbuffered, traces of methanol / DMSO [2] [log10] | log partition n-undecane / HPLC water, unbuffered, traces of methanol / DMSO [2] [log10] | log partition oleylalcohol / HPLC water, unbuffered, traces of methanol / DMSO [2] [log10] | log partition toluene / HPLC water, unbuffered, traces of methanol / DMSO [2] [log10]
1 | CCOc1ccc2[nH]cc(C(=O)NCc3ccccc3)c(=O)c2n1 | 2.233 | 1.386 | 2.411 | -1.713 | 1.249 | -1.238 | -1.123 | -1.345 | 2.032 | -0.4984 | 3.526 | 2.502 | 1.196 | -1.221 | 1.153 | -1.633 | -1.139 | -1.372 | 2.478 | -0.2525
2 | CCc1ccc(C(=O)NN(C(=O)c2cc(C)cc(C)c2)C(C)(C)C)cc1 | 1.362 | 1.733 | 1.756 | 1.284 | 1.824 | 1.035 | 0.9128 | 0.8541 | 1.649 | 1.989 | 1.544 | 1.55 | 1.889 | 2.061 | 1.493 | 1.296 | 1.432 | 1.36 | 0.7925 | 1.17
3 | CCNC(=O)C1CC(C)CCC1C(C)C (stereo not drawn) | 1.736 | 1.72 | 1.704 | – | 1.778 | – | – | – | 1.811 | 1.717 | 0.07926 | -0.1005 | 0.05708 | – | -0.08543 | – | – | – | -0.02549 | -0.1964
4 | CC(C)C1(C)N=C(c2nc3ccccc3cc2C(=O)O)NC1=O (stereo not drawn) | -0.1003 | 0.3218 | -1.426 | -1.269 | -0.4187 | -0.9732 | -1.466 | -1.153 | 0.635 | -0.5162 | 0.3193 | -0.573 | -0.8011 | -1.428 | -0.4847 | -1.375 | -1.474 | -1.445 | -0.2597 | -1.419
5 | Cn1cnc([N+](=O)[O-])c1Sc1ncnc2nc[nH]c12 | 0.004535 | -0.2382 | -0.4745 | -1.86 | -0.366 | -1.66 | -2.343 | -2.232 | -0.3513 | -1.048 | 0.3085 | 0.621 | 0.1897 | -1.394 | 0.2139 | -1.636 | -1.543 | -1.518 | 0.1703 | -0.3549
6 | CCCCOC(=O)C(C)Oc1ccc(Oc2ccc(C(F)(F)F)cn2)cc1 (stereo not drawn) | 1.531 | 1.572 | 2.874 | 2.387 | 2.183 | 2.824 | 2.349 | 2.336 | 1.771 | 2.12 | 1.133 | 4.432 | 2.334 | -0.5049 | 3.927 | -1.029 | -0.5477 | -0.5963 | 1.914 | -0.7173
7 | Cc1cc2c3c(c1)C(c1ccccc1)=N[C@@H](NC(=O)c1ccncc1)C(=O)N3CC2 | 2.552 | 2.569 | 2.171 | 0.1916 | 2.144 | -0.2402 | -0.1186 | -0.161 | 2.273 | 2.127 | 1.331 | 2.844 | 1.438 | 0.6947 | 2.402 | -0.4559 | 0.088 | 0.07291 | 1.282 | 1.875
